The source of these data is EP4273147A1, “SUBSTITUTED SPIROLACTAMS, SALTS THEREOF AND THEIR USE AS HERBICIDALLY ACTIVE SUBSTANCES” (Bayer Aktiengesellschaft, priority 2022, dated 2023).

The subject of assay [1] is ECHCG. Description: Herbicidal pre-emergence action (Table A2). The assay is classed as in vivo, Echinochloa crus-galli. The conditions noted are these: visual grading after ca. 3 weeks. The text has this:
(§1) Seeds of mono- and dicotyledonous weed plants were sown in plastic pots (double sowings with one species of mono- and one species of dicotyledonous weed plants per pot), in sandy loam, and covered with soil.

The next assay has as its system LOLRI. Briefly: Herbicidal pre-emergence action (Table A3). The conditions noted are these: visual grading after ca. 3 weeks; for pest or weed control at 1280 g/ha: Lolium rigidum, pre-emergence, 504 h, read-out: pre-emergence activity against LOLRI. The assay is classed as in vivo, Lolium rigidum.
Source text: as §1

The test system of another assay is MATIN. Briefly: Herbicidal pre-emergence action (Table A4). Format: in vivo, Matricaria inodora. The conditions noted are these: visual grading after ca. 3 weeks.
Source text: as §1

Assay [2] has as its system SETVI. Description: Herbicidal pre-emergence action (Table A5). The assay is classed as in vivo, Setaria viridis. The conditions noted are these: visual grading after ca. 3 weeks.
Source text: as §1

For another assay, the system named is STEME. Briefly: Herbicidal pre-emergence action (Table A6). The assay is classed as in vivo, Stellaria media. The conditions noted are these: visual grading after ca. 3 weeks.
Source text: as §1

The subject of assay [3] is POAAN. Description: Herbicidal pre-emergence action (Table A7). Format: in vivo, Poa annua. The conditions noted are these: visual grading after ca. 3 weeks; for pest or weed control at 320 g/ha: Poa annua, pre-emergence, 504 h, read-out: pre-emergence activity against POAAN.
Source text: as §1

For another assay, the system named is ALOMY. Description: Herbicidal pre-emergence action (Table A9). Format: in vivo, Alopecurus myosuroides. The conditions noted are these: application rate 1280 g/ha; visual grading after ca. 3 weeks.
Source text: as §1

The test system of a further assay is KCHSC. Briefly: Herbicidal pre-emergence action (Table A10). Format: in vivo, Kochia scoparia. The conditions noted are these: visual grading after ca. 3 weeks.
Source text: as §1

Another assay has as its system DIGSA. Description: Herbicidal pre-emergence action (Table A12). The assay is classed as in vivo, Digitaria sanguinalis. The conditions noted are these: visual grading after ca. 3 weeks.
Source text: as §1

The subject of assay [4] is ECHCG. Description: Herbicidal post-emergence action (Table B3). Format: in vivo, Echinochloa crus-galli. The conditions noted are these: application rate 1280 g/ha, rated visually after about 3 weeks. As for the experimental part: (§2) Seeds of mono- and dicotyledonous weed plants were placed in plastic pots in sandy loam soil (doubly sown with in each case one species of mono- or dicotyledonous weed plants per pot), covered with soil and cultivated in a greenhouse under controlled growth conditions. 2 to 3 weeks after sowing, the test plants were treated at the one-leaf stage. […] After the test plants had been kept in the greenhouse under optimum growth conditions for about 3 weeks, the activity of the preparations was rated visually in comparison to untreated controls. For example, 100% activity = the plants have died, 0% activity = like control plants.

Assay [5] concerns SETVI. Description: Herbicidal post-emergence action (Table B8). The assay is classed as in vivo, Setaria viridis. As for the experimental part:
as §2

Assay [6] has as its system POAAN. Briefly: Herbicidal post-emergence action (Table B7). Format: in vivo, Poa annua. The conditions noted are these: application rate 1280 g/ha. As for the experimental part: as §2
In another assay the test system is VERPE. Briefly: Herbicidal post-emergence action (Table B10). The conditions noted are these: application rate 1280 g/ha. The assay is classed as in vivo, Veronica persica. As for the experimental part: as §2

As for `O=C1N(Cc2ccc(F)c(F)c2F)CCCC12CCCN(Cc1ccc(F)c(F)c1F)C2=O` (racemic) [I-189, 2,8-bis(2,3,4-trifluorophenylmethyl)-2,8-diazaspiro[5.5]undecane-1,7-dione], the “pre-emergence activity against ECHCG” value with ECHCG [1] (application rate 320 g/ha) is listed as 100%. The pest or weed control at 1280 g/ha came out at 100% in the assay on LOLRI (application rate 1280 g/ha) and 90% in the assay with ECHCG [4] (Echinochloa crus-galli, post-emergence, 504 h, read-out: post-emergence activity against ECHCG). Besides, the “pre-emergence activity against MATIN” value with MATIN (application rate 1280 g/ha) stood at 90%. Further, in the assay on SETVI [2] (application rate 320 g/ha), the “pre-emergence activity against SETVI” value stood at 100%. Further, the “pre-emergence activity against STEME” value with STEME (application rate 1280 g/ha) was determined as 90%. For the same compound, the pest or weed control at 320 g/ha in the assay with POAAN [3] (application rate 320 g/ha) amounted to 100%. In addition, the “pre-emergence activity against ALOMY” value in the assay with ALOMY came to 100%. In addition, in the assay on KCHSC (application rate 1280 g/ha), the “pre-emergence activity against KCHSC” value stood at 100%. Also, the “pre-emergence activity against DIGSA” value in the assay with DIGSA (application rate 320 g/ha) was found to be 90%. The “post-emergence activity against SETVI” value in the assay with SETVI [5] (application rate 320 g/ha) is recorded as 90%.

For `Cc1nc(Cl)sc1CN1CCCC2(CCCN(Cc3sc(Cl)nc3C)C2=O)C1=O` (racemic) [I-201, 2,8-bis[(2-chloro-4-methyl-1,3-thiazol-5-yl)methyl]-2,8-diazaspiro[5.5]undecane-1,7-dione], the pest or weed control at 1280 g/ha in the assay on LOLRI (application rate 1280 g/ha) turned out to be 100%. The pest or weed control at 320 g/ha in the assay with POAAN [3] (application rate 320 g/ha) was 100%. In addition, the “pre-emergence activity against ALOMY” value with ALOMY worked out at 100%. In addition, the “pre-emergence activity against DIGSA” value in the assay on DIGSA (application rate 1280 g/ha) is listed as 90%. In the assay on POAAN [6], the “post-emergence activity against POAAN” value turned out to be 90%. In addition, the “post-emergence activity against SETVI” value in the assay on SETVI [5] (application rate 1280 g/ha) amounted to 90%.

Take `Cc1ccccc1CN1CCC2(CCCN(Cc3ccccc3F)C2=O)C1=O` (racemic) [I-088]: the “pre-emergence activity against LOLRI” value in the assay on LOLRI (application rate 1280 g/ha) turned out to be 100%. The “pre-emergence activity against SETVI” value with SETVI [2] (application rate 1280 g/ha) is reported as 90%. Also, the “pre-emergence activity against STEME” value in the assay on STEME (application rate 1280 g/ha) stood at 90%. Besides, the “pre-emergence activity against POAAN” value with POAAN [3] (application rate 320 g/ha) is on record as 100%. Besides, the “pre-emergence activity against KCHSC” value with KCHSC (application rate 320 g/ha) came out at 90%. For the same compound, the “pre-emergence activity against DIGSA” value in the assay on DIGSA (application rate 320 g/ha) is 90%.

Regarding `O=C1N(Cc2cccs2)CCCC12CCCN(Cc1ccccc1Cl)C2=O` (stereo not shown) [I-062], the “pre-emergence activity against ECHCG” value with ECHCG [1] (application rate 1280 g/ha) is listed as 100%. The “pre-emergence activity against LOLRI” value in the assay on LOLRI (application rate 320 g/ha) was found to be 100%. Also, the “pre-emergence activity against SETVI” value in the assay on SETVI [2] (application rate 320 g/ha) was 100%. In addition, the “pre-emergence activity against STEME” value with STEME (application rate 320 g/ha) amounted to 90%. Besides, the “pre-emergence activity against POAAN” value in the assay with POAAN [3] (application rate 320 g/ha) is on record as 100%. Further, the “post-emergence activity against POAAN” value with POAAN [6] worked out at 90%. In the assay with VERPE, the “post-emergence activity against VERPE” value is listed as 90%.

Consider `O=C1N(Cc2ccsc2)CCCC12CCCN(Cc1c(F)cccc1F)C2=O` (racemic) [I-075], for which, in the assay on ECHCG [1] (application rate 320 g/ha), the “pre-emergence activity against ECHCG” value is 100%. Besides, in the assay on LOLRI (application rate 320 g/ha), the “pre-emergence activity against LOLRI” value was 100%. The “pre-emergence activity against MATIN” value with MATIN (application rate 1280 g/ha) is recorded as 90%. For the same compound, the “pre-emergence activity against SETVI” value with SETVI [2] (application rate 320 g/ha) is on record as 90%. In addition, in the assay with STEME (application rate 1280 g/ha), the “pre-emergence activity against STEME” value stood at 100%. Further, the “pre-emergence activity against POAAN” value with POAAN [3] (application rate 1280 g/ha) turned out to be 100%. Moreover, in the assay on ALOMY, the “pre-emergence activity against ALOMY” value is given as 90%. Besides, the “post-emergence activity against ECHCG” value with ECHCG [4] is listed as 90%. Further, the “post-emergence activity against POAAN” value in the assay with POAAN [6] amounted to 90%.

For the compound `O=C1N(Cc2ccccc2F)CCC12CCCN(Cc1cccc(F)c1F)C2=O` (racemic) [I-085], in the assay on ECHCG [1] (application rate 1280 g/ha), the “pre-emergence activity against ECHCG” value stood at 100%. Further, in the assay with LOLRI (application rate 320 g/ha), the “pre-emergence activity against LOLRI” value amounted to 100%. Besides, in the assay with MATIN (application rate 320 g/ha), the “pre-emergence activity against MATIN” value is on record as 90%. Also, in the assay with SETVI [2] (application rate 1280 g/ha), the “pre-emergence activity against SETVI” value worked out at 100%. Moreover, the “pre-emergence activity against STEME” value with STEME (application rate 320 g/ha) was 90%. In addition, the “pre-emergence activity against POAAN” value in the assay with POAAN [3] (application rate 320 g/ha) worked out at 100%. Also, the “pre-emergence activity against ALOMY” value in the assay with ALOMY was 90%. Further, the “pre-emergence activity against KCHSC” value in the assay with KCHSC (application rate 1280 g/ha) was 90%. Besides, in the assay with DIGSA (application rate 320 g/ha), the “pre-emergence activity against DIGSA” value is reported as 90%. Also, the “post-emergence activity against POAAN” value in the assay on POAAN [6] amounted to 90%. Besides, the “post-emergence activity against SETVI” value with SETVI [5] (application rate 1280 g/ha) is reported as 90%.

On to `O=C1N(Cc2ccccc2)CCCC12CCN(Cc1ccccc1F)C2=O` (racemic) [I-059], for which the “pre-emergence activity against ECHCG” value in the assay with ECHCG [1] (application rate 320 g/ha) is recorded as 100%. In addition, in the assay with LOLRI (application rate 1280 g/ha), the “pre-emergence activity against LOLRI” value turned out to be 100%. For the same compound, the “pre-emergence activity against MATIN” value in the assay with MATIN (application rate 1280 g/ha) is given as 90%. In addition, the “pre-emergence activity against SETVI” value in the assay on SETVI [2] (application rate 320 g/ha) was 100%. Further, the “pre-emergence activity against STEME” value in the assay with STEME (application rate 1280 g/ha) came out at 90%. For the same compound, the “pre-emergence activity against POAAN” value in the assay with POAAN [3] (application rate 320 g/ha) came out at 100%. Further, in the assay on KCHSC (application rate 1280 g/ha), the “pre-emergence activity against KCHSC” value is recorded as 90%. Besides, the “pre-emergence activity against DIGSA” value in the assay on DIGSA (application rate 320 g/ha) turned out to be 90%. Further, in the assay on ECHCG [4], the “post-emergence activity against ECHCG” value amounted to 90%. Also, in the assay on POAAN [6], the “post-emergence activity against POAAN” value was determined as 90%.

Turning to `Cc1ccccc1CN1CCC2(CCCN(Cc3cccc(F)c3F)C2=O)C1=O` (racemic) [I-080], the “pre-emergence activity against ECHCG” value with ECHCG [1] (application rate 1280 g/ha) stood at 100%. Moreover, the “pre-emergence activity against LOLRI” value in the assay on LOLRI (application rate 1280 g/ha) is recorded as 90%. Besides, the “pre-emergence activity against SETVI” value in the assay with SETVI [2] (application rate 1280 g/ha) amounted to 100%. For the same compound, the “pre-emergence activity against STEME” value in the assay with STEME (application rate 1280 g/ha) amounted to 90%. Further, in the assay on POAAN [3] (application rate 320 g/ha), the “pre-emergence activity against POAAN” value came to 100%. Besides, the “pre-emergence activity against KCHSC” value with KCHSC (application rate 1280 g/ha) worked out at 100%. The “pre-emergence activity against DIGSA” value in the assay on DIGSA (application rate 1280 g/ha) turned out to be 100%.

For `O=C1N(Cc2ccccc2F)CCCC12CCCN(Cc1ccccc1Cl)C2=O` (racemic) [I-036], the “pre-emergence activity against ECHCG” value in the assay on ECHCG [1] (application rate 320 g/ha) was found to be 100%. Also, the “pre-emergence activity against LOLRI” value in the assay on LOLRI (application rate 320 g/ha) is 100%. Moreover, the “pre-emergence activity against MATIN” value in the assay on MATIN (application rate 320 g/ha) is 90%. For the same compound, the “pre-emergence activity against SETVI” value in the assay with SETVI [2] (application rate 320 g/ha) stood at 100%. Moreover, the “pre-emergence activity against POAAN” value in the assay with POAAN [3] (application rate 320 g/ha) is 90%. In the assay on ALOMY, the “pre-emergence activity against ALOMY” value stood at 90%. Further, the “post-emergence activity against ECHCG” value with ECHCG [4] is listed as 90%. The “post-emergence activity against POAAN” value with POAAN [6] was found to be 90%. Moreover, the “post-emergence activity against SETVI” value in the assay on SETVI [5] (application rate 1280 g/ha) is listed as 90%.
